Data reported in PubChem BioAssay AID1918933 (Molecular Pharmacology Branch, DTP, NCI, 2023).

System: 186277-243-T-J2-PDC complex spheroid viability
Assay: Anticancer human tumor 186277-243-T-J2-PDC patient-derived colon adenocarcinoma cell line growth inhibition
Details: for IC50: curve of first compound; for viability, T/C: stronger effect = lower value; active = viability on the fitted dose curve at most 10% of control; inactive = the rest
Excerpt: Multicellular complex tumor spheroid response to LSD1 Inhibitor Iadademstat in combination with a variety of drugs and investigational agents in selected tumor cell lines
The current study was undertaken to assess response to LSD1 inhibitors in combination with standard-of-care drugs and investigational agents in solid tumor complex spheroid models as well as in the K-562 leukemia. Complex spheroids include a stromal component modeled by human endothelial cells (HUVEC) and fibroblasts modeled by human mesenchymal stem cells (MSCs). The concentration ranges selected for each drug and investigational agent were based upon clinically achievable concentrations if the clinical Cmax of the agent was known.
Compounds. The drugs and investigational agents used in this study are listed on Table 1. All of the agents used, including staurosporine (NSC755774) and gemcitabine (NSC613327), were obtained from the Developmental Therapeutics Program, NCI. FDA-approved anticancer drugs are available from the NCI at http://dtp.nci.nih.gov/branches/dscb/oncology_drugset_explanation.html. Drugs and investigational agents were >95% pure by proton nuclear magnetic resonance (NMR) and liquid chromatography/mass spectrometry (LC/MS). Stock solutions were prepared at 400x in DMSO, stored at -70 degrees C, and diluted in fresh medium prior to their use. The final concentration of DMSO in cell culture wells never exceeded 0.25% (v/v). The FDA-approved anticancer drug set is available from the Developmental Therapeutics Program at https://dtp.cancer.gov/organization/dscb/obtaining/available_plates.htm. All drugs and investigational agents were tested over a range starting from a high concentration at or near the clinical Cmax and decreasing in half-log increments. If the clinical Cmax for an agent had not been determined, the highest concentration tested was 10 microM.
Cell Lines. The patient-derived cancer cell (PDC) lines: 292921-168-R-J2-PDC, K24384-001-R-PDC, and 521955-158-R2-J5-PDC pancreatic carcinomas, 556581-035-R-J1 ovarian carcinoma, 324938-238-R-J1-PDC, 855422-203-R-J1-PDC and 883617-216-R-J1-PDC urothelial bladder carcinomas, 743489-274-T-PDC renal cell carcinoma, 138582-R-J1 Merkel cell tumor, K60290-347-R-J1 and K57222-313-R-J1-PDC glioblastomas, 653999-131-R-J2-PDC, LG0703-F948-PDC, and 349418-098-R-PDC non-small cell lung carcinomas, 885512-296-R-J2-PDC, 171881-019-R-J1-PDC breast carcinomas and 186277-243-T-J2-PDC and 233499-124-R-J2-PDC colon carcinomas were obtained from the NCI Patient-Derived Models Repository (PDMR, https://pdmr.cancer.gov). The established cell lines NCI/ADR-RES (RRID:CVCL_14520 and OVCAR-5 (RRID:CVCL_1628) ovarian carcinomas, 786-O (RRID:CVCL_1051) and A498 (RRID:CVCL_A498) renal cell carcinoma, NCI-H211 (ATCC, cat. CRL-5824; RRID:CVCL_1529), NCI-H196 (ATCC, cat. CRL-5823, RRID:CVCL_1509), SW 1271 (ATCC, cat. CRL-2177, RRID:CVCL_1716) and NCI-H1876 (ATCC, cat. CRL-5902, RRID:CVCL_1503) small cell lung carcinomas, MDA-MB-231 (RRID:CVCL_0062) and MDA-MB-468 (RRID:CVCL_0419)breast carcinomas (10-12). Pooled donor human umbilical vein endothelial cells (HUVEC, Lonza, cat. CC-2519) and human mesenchymal stem cells (hMSC, Lonza, cat. PT-2501) were purchased from Lonza (Walkersville, MD).
Cell Culture. All cells were maintained in an incubator at 37 degrees C and 5% CO2 with 95% humidity. The PDC lines were cultured according to standard operating procedures established by the NCI PDMR (https://pdmr.cancer.gov). Briefly all PDCs were thawed and cultured in Matrigel-coated flasks prepared with a working solution of 1X Ham's F-12 nutrient mix, without supplementation (Invitrogen, Waltham, MA, cat. 11765054), 100 U/mL penicillin-streptomycin (Invitrogen, cat. 15140122), and 2.5% Matrigel (Corning Inc., Corning, NY, cat. 354248) for the first three passages. […]
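Note: 7 day exposure to compounds.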

CCc1c2c(nc3ccc(O)cc13)-c1cc3c(c(=O)n1C2)COC(=O)[C@]3(O)CC + NC1CC1c1ccc(-c2cccc(O)c2)cc1
active: viability, T/C (second compound 0.1 µM, first compound 0.03 µM) 3.91% | viability, T/C (second compound 0.1 µM, first compound 0.0949 µM) 1.18% | viability, T/C (second compound 0.1 µM, first compound 0.3 µM) 0.24% | viability, T/C (second compound 0.316 µM, first compound 0.03 µM) 3.45% | viability, T/C (second compound 0.316 µM, first compound 0.0949 µM) 0.15% | viability, T/C (second compound 0.316 µM, first compound 0.3 µM) 0.17% | viability, T/C (second compound 1 µM, first compound 0.03 µM) 3.43% | viability, T/C (second compound 1 µM, first compound 0.0949 µM) 0.22% | viability, T/C (second compound 1 µM, first compound 0.3 µM) 0.17% | viability, T/C (second compound 3.16 µM, first compound 0.03 µM) 3.34% | viability, T/C (second compound 3.16 µM, first compound 0.0949 µM) 0.22% | viability, T/C (second compound 3.16 µM, first compound 0.3 µM) 0.16% | viability, T/C (second compound 10 µM, first compound 0.03 µM) 1.73% | viability, T/C (second compound 10 µM, first compound 0.0949 µM) 0.19% | viability, T/C (second compound 10 µM, first compound 0.3 µM) 0.23%
inactive: viability, T/C (second compound 0.1 µM, first compound 0.000949 µM) 41.8% | viability, T/C (second compound 0.1 µM, first compound 0.003 µM) 30.3% | viability, T/C (second compound 0.1 µM, first compound 0.00949 µM) 21.5% | viability, T/C (second compound 0.316 µM, first compound 0.000949 µM) 43.1% | viability, T/C (second compound 0.316 µM, first compound 0.003 µM) 29.9% | viability, T/C (second compound 0.316 µM, first compound 0.00949 µM) 22.4% | viability, T/C (second compound 1 µM, first compound 0.000949 µM) 42.2% | viability, T/C (second compound 1 µM, first compound 0.003 µM) 28.3% | viability, T/C (second compound 1 µM, first compound 0.00949 µM) 24.3% | viability, T/C (second compound 3.16 µM, first compound 0.000949 µM) 42.7% | viability, T/C (second compound 3.16 µM, first compound 0.003 µM) 29% | viability, T/C (second compound 3.16 µM, first compound 0.00949 µM) 24% | viability, T/C (second compound 10 µM, first compound 0.000949 µM) 35.4% | viability, T/C (second compound 10 µM, first compound 0.003 µM) 23.4% | viability, T/C (second compound 10 µM, first compound 0.00949 µM) 17.3%
< 0.949 nM: IC50 (second compound 0.1 µM) | IC50 (second compound 0.316 µM) | IC50 (second compound 1 µM) | IC50 (second compound 3.16 µM) | IC50 (second compound 10 µM)
